From patent US7091218B1 (priority 1999, dated 2006)
Counter-ions that a name gives are not always drawn.

Assays:
acetylcholinesterase = target: T1, acetylcholinesterase (Rattus norvegicus, UniProt P37136); assay: biochemical; conditions: rat brain homogenate as enzyme source; acetylthiocholine substrate, DTNB, absorbance at 412 nm
T1 construct: Using rat brain homogenate as a source of acetylcholinesterase; from tissue; host or cells: rat brain homogenate
T1 sequence (P37136 32-614): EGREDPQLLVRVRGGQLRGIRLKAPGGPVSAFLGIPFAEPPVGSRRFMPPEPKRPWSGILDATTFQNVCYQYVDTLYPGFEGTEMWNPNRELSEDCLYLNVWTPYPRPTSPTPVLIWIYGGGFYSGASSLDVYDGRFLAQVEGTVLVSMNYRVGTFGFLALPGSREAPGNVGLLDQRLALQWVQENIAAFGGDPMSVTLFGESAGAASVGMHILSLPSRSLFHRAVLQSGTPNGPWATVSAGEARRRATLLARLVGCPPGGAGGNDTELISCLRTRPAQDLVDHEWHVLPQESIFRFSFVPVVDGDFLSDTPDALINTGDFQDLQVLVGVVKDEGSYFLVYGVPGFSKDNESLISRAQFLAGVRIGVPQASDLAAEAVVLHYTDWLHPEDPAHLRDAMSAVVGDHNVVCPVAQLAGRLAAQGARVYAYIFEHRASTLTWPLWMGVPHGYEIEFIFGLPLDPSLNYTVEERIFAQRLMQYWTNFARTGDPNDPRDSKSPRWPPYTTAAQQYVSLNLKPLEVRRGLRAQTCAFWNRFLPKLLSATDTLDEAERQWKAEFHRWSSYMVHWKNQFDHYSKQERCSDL
Procedure: In Vitro Acetylcholinsterase Inhibitory Effect
Using rat brain homogenate as a source of acetylcholinesterase, esterase activity was assayed in accordance with the method of Ellman et al. ^1). That is, acetylthiocholin as a substrate, a test compound and DTNB (5,5′-dithiobis(2-nitrobenzoic acid)) were added to […] brain homogenate, and after incubation, the produced thiocholine was reacted with DTNB to produce a yellow product. This was measured as a change in absorbance at 412 nm to obtain acetylcholineesterase activity. The acetylcholineesterase inhibiting activity of each test compound was obtained as 50% inhibition concentration (IC50). Note that the test compounds were used after dissolving them in physiological saline. Ellman, G. L., Courtney, K. D., Andres, V. and Featherstone, R. M., (1961), Biochem. Pharmacol., 7, 88–95.

melting point | SMILES | IC50 (acetylcholinesterase)
153 to 154 °C | COc1cc2c(cc1OC)C(=O)C(CC1CCN(Cc3ccccc3)CC1)(N=[N+]=[N-])C2.Cl (stereo not drawn) | –
– | COc1cc2c(cc1OC)C(=O)C(Cl)(CC1CCN(Cc3ccccc3)CC1)C2 (stereo not drawn) [Example 1, 1-Benzyl-4-[(5,6-dimethoxy-2-chloro-1-indanon)-2-yl]methylpiperidine hydrochloride] | 2 nM
– | CCOc1cc2c(cc1OCC)C(=O)C(Cl)(CC1CCN(Cc3ccccc3)CC1)C2 (stereo not drawn) [Example 6, hydrochloride] | 2 nM
